A value given as a limit tells only on which side of the number the result lay.

The data set in a line: T1/2 (phosphate buffer pH 7.0 @ 28 degree C). Format: ADME.
The molecule `CC(C)(C)C1=C(C(=O)[O-])N2C(=O)[C@H]([C@H](O)c3ccccc3)[C@@H]2O1.[Na+]` showed a half-life of 0.5 h.

`CC(C)(C)C1=C(C(=O)[O-])N2C(=O)[C@H](CO)[C@@H]2O1.[Na+]` had a half-life of 2.4 h. This half-life lies about 4.8-fold higher than the previous one. With `CC(C)(C)C1=C(C(=O)[O-])N2C(=O)[C@H](CNC(=O)[C@H](N)c3ccccc3)[C@H]2O1.[Na+]` the figure was 2.2 h; with `CC(C)(C)C1=C(C(=O)[O-])N2C(=O)[C@H]([C@@H](O)CCc3ccc(O)cc3)[C@@H]2O1.[Na+]`, 11.8 h; with `COC(=O)[C@H](O)[C@H]1C(=O)N2C(C(=O)[O-])=C(C(C)(C)C)O[C@H]12.[Na+]`, 6.7 h.

For the molecule `CC(C)(C)C1=C(C(=O)[O-])N2C(=O)[C@H](CNC(=O)COC(=O)Cc3ccccc3)[C@H]2O1.[Na+]`, the half-life is 9.3 h. `CC(C)(C)C1=C(C(=O)[O-])N2C(=O)[C@H](CNS(=O)(=O)Cc3ccccc3)[C@H]2O1.[Na+]` had a half-life of 8.9 h. This half-life and that of the molecule before are within 1.5-fold of each other. As for `CC(C)(C)C1=C(C(=O)[O-])N2C(=O)[C@H](CNC(=O)CCNC(=O)Cc3ccccc3)[C@H]2O1.[Na+]`, the figure is 5.5 h. With `CC(C)(C)C1=C(C(=O)[O-])N2C(=O)[C@H]([C@@H](O)c3ccccc3)[C@H]2O1.[Na+]` the figure was 8.9 h; with `CC(C)(C)C1=C(C(=O)[O-])N2C(=O)[C@H]([C@@H](O)c3ccncc3)[C@H]2O1.[Na+]`, 6 h; with `CC(C)(C)C1=C(C(=O)[O-])N2C(=O)[C@H](CNC(=O)COc3ccccc3)[C@H]2O1.[Na+]`, 5.7 h. As for `C[C@H](O)[C@H]1C(=O)N2C(C(=O)[O-])=C(C(C)(C)C)O[C@H]12.[Na+]`, the figure is 7.1 h. `CC(=O)NC[C@H]1C(=O)N2C(C(=O)[O-])=C(C(C)(C)C)O[C@H]12.[Na+]` showed a half-life of less than 3 h. With `CC(C)(C)C1=C(C(=O)[O-])N2C(=O)[C@H]([C@@H](O)CCc3ccc(O)cc3)[C@H]2O1.[Na+]` the figure was 21.2 h. `COC(=O)[C@@H](O)[C@H]1C(=O)N2C(C(=O)[O-])=C(C(C)(C)C)O[C@H]12.[Na+]` gave a half-life of 6.2 h.

The molecule `CC(C)(C)C1=C(C(=O)[O-])N2C(=O)[C@H]([C@@H](O)c3ccccc3)[C@@H]2O1.[Na+]` showed a half-life of 2.2 h. As for `CC(C)(C)C1=C(C(=O)[O-])N2C(=O)[C@H]([C@H](O)CCc3ccncc3)[C@H]2O1.[Na+]`, the figure is 13.7 h; as for `CC(C)(C)C1=C(C(=O)[O-])N2C(=O)[C@H](CNC(=O)CNC(=O)Cc3ccccc3)[C@H]2O1.[Na+]`, 6.6 h.

As for `CC(C)(C)C1=C(C(=O)[O-])N2C(=O)[C@H](CN)[C@H]2O1.[Na+]`, the half-life was 1.2 h. `CC(C)(C)C1=C(C(=O)[O-])N2C(=O)[C@H]([C@H](O)c3ccccc3)[C@H]2O1.[Na+]` gave a half-life of 7 h. Molecule `CC(C)(C)C1=C(C(=O)[O-])N2C(=O)[C@H]([C@H](O)CCc3ccncc3)[C@@H]2O1.[Na+]` gave a half-life of 7.1 h. `CC(C)(C)C1=C(C(=O)[O-])N2C(=O)[C@H]([C@H](O)c3ccncc3)[C@H]2O1.[Na+]` gave a half-life of 6.4 h. This half-life and that of the molecule before are within 1.5-fold of each other. As for `CC(C)(C)C1=C(C(=O)[O-])N2C(=O)[C@H]([C@@H](O)CCc3ccncc3)[C@H]2O1.[Na+]`, the figure is 15.8 h; as for `C[C@H](F)[C@H]1C(=O)N2C(C(=O)[O-])=C(C(C)(C)C)O[C@H]12.[Na+]`, 7.2 h. Turning to `CC(C)(C)OC(=O)[C@H](O)[C@H]1C(=O)N2C(C(=O)[O-])=C(C(C)(C)C)O[C@H]12.[Na+]`, the half-life is 10.7 h. The half-life values of the last two molecules are within 1.5-fold of each other. As for `Cn1cc([C@H](O)[C@H]2C(=O)N3C(C(=O)[O-])=C(C(C)(C)C)O[C@H]23)nn1.[Na+]`, the figure is 7 h; as for `C[C@@H](F)[C@H]1C(=O)N2C(C(=O)[O-])=C(C(C)(C)C)O[C@H]12.[Na+]`, 3.5 h; as for `CC(C)(C)C1=C(C(=O)[O-])N2C(=O)[C@H](CO)[C@H]2O1.[Na+]`, 5 h. As for `CC(C)(C)C1=C(C(=O)[O-])N2C(=O)[C@H]([C@@H](O)c3ccc(O)cc3)[C@H]2O1.[Na+]`, the figure is 10.3 h. As for `C[C@@H](O)[C@H]1C(=O)N2C(C(=O)[O-])=C(C(C)(C)C)O[C@H]12.[Na+]`, the figure is 8.1 h; as for `CC(C)(C)C1=C(C(=O)[O-])N2C(=O)[C@H](CNS(C)(=O)=O)[C@H]2O1.[Na+]`, 2.2 h. The molecule `CC(C)(C)C1=C(C(=O)[O-])N2C(=O)[C@H]([C@H](O)CCc3ccc(O)cc3)[C@H]2O1.[Na+]` had a half-life of 24.6 h. In the case of `CC(C)(C)C1=C(C(=O)[O-])N2C(=O)[C@H]([C@@H](O)CCc3ccccc3)[C@H]2O1.[Na+]`, the half-life was 39 h.

As to `CC(C)(C)C1=C(C(=O)[O-])N2C(=O)[C@H]([C@H](O)CCc3ccccc3)[C@H]2O1.[Na+]`, the half-life is 21 h. As for `Cn1cc([C@@H](O)[C@H]2C(=O)N3C(C(=O)[O-])=C(C(C)(C)C)O[C@H]23)nn1.[Na+]`, the figure is 6.8 h; as for `O=C([O-])[C@H]1/C(=C/CO)O[C@@H]2CC(=O)N21.[K+]` [CLAVULANATE POTASSIUM], 60 h. With `CC(C)(C)C1=C(C(=O)[O-])N2C(=O)[C@H](CNC(=O)Cc3ccccc3)[C@H]2O1.[Na+]`, the half-life was 5.5 h. Against the preceding molecule, the half-life is about 11-fold lower. For the molecule `C[C@@H](O)[C@H]1C(=O)N2C(C(=O)[O-])=C(C(C)(C)C)O[C@@H]12.[Na+]`, the half-life was 6.4 h.

A word on the half-life: it is how long it takes for the measured level to halve.
